Measured values as given in paper PMC8277899, “A novel RyR1-selective inhibitor prevents and rescues sudden death in mouse models of malignant hyperthermia and heat stroke” (Nature Communications, 2021).
“And” between values parts separate entries of the source, which are not always exact repeats. Identical values can stand only once. Like-named read-outs stand apart in the source and are kept apart here.

Tested on: soleus muscles from R2509C mice
Experiment: Muscle force in vitro, soleus from R2509C mice (caffeine and heat contracture, twitch, tetanus)
Format: cell-based, mouse
Details: for inhibition at 3 µM: Mus musculus, soleus (WT and R2509C groups)

Q: With `CCCCCCCCn1cc(C(=O)O)c(=O)c2cc3c(cc21)OCO3` [Cpd1, 6,7-(methylenedioxy)-1-octyl-4-quinolone-3-carboxylic acid] as the compound, how does the inhibition at 3 µM (at 100 Hz, read-out: inhibition of tetanic contraction force) read?
A: The inhibition at 3 µM was 35%.

Q: And the inhibition at 3 µM (read-out: inhibition of twitch contraction force)?
A: Its inhibition at 3 µM is 72%.

Q: What about the “increase in basal stress in response to caffeine” value (R2509C soleus, 3 μM Cpd1, caffeine 20 mM) of the same compound?
A: Its value is 0.5836 and 0.5932 and 0.4496 and 0.3389 and 0.4718.

Q: And the “effect on caffeine-induced contracture tension” value (R2509C soleus, pretreatment 3 µM, 20 mM caffeine)?
A: Its value is “decreased”.

Q: And the “effect on heat-induced contracture” value (R2509C soleus, pretreatment 3 µM, 42 °C)?
A: The value was “significantly reduced”.
